Patent US20260097047A1, “Small molecule inhibitors of the ribosome biogenesis factor NVL2” (Board of Regents, The University of Texas System, priority 2023, published 2026)
Entries after “also recorded” stand apart in the source; their conditions may differ.

What was measured:
[1] = system: p53 and p21; assay: p53 and p21 protein levels in HCT116 cells; assay type: cell-based, human
Text: Inhibition of 60S ribosome biogenesis is known to induce the stability and upregulation of p53, which could serve as a potential pharmacodynamics marker for MM017 in HCT116 cells. […] We used PRISM (Broad Institute) to evaluate the selectivity of MM017 across 902 cancer cell lines and then correlated this selectivity to 1,215 clinical and pre-clinical compounds in the PRISM database. […] These observations indicate that oxaliplatin and carmofur, like MM017, target ribosome biogenesis.

[2] = system: p53 KO and p21 KO HCT116 cells; assay: Growth competition of p53 or p21 knockout versus control HCT116 cells; assay type: cell-based, human
Text: To better understand how inhibition of NVL by MM017 leads to cell death, we performed a genome wide pooled CRISPR/Cas9 knockout screen in HCT116 cells using a library of guide RNAs targeting 19,114 genes. Cells were pulsed intermittently with vehicle or MM017 over 21 days, at which point MM017 treated cells had undergone 9.79 fewer population doublings. Massively parallel sequencing of PCR products amplified from genomic DNA was used to determine relative levels of sgRNA sequences to infer the relative impact of each gene on compound sensitivity. […] To confirm whether p53 and p21 are required for the anti-proliferative activity of MM017, we performed a growth competition experiment between cells expressing ZsGreen with either p53 or p21 knockout (KO) and control cells expressing mCherry. Without treatment, the ratio between green and red cells was unchanged over time.

[3] = system: 60S, 80S and 40S ribosomal subunits; assay: Polysome profiling; assay type: cell-based, human
Text: NVL2 in yeast is essential for 60S ribosomal maturation, and therefore, we hypothesized that MM017 might decrease 60S ribosome synthesis. To test this hypothesis, we subjected either parental or NVL mutant cells treated with MM017 for different time points to polysome profiling. Polysome profiling uses a sucrose gradient to fractionate the complete ribosome (80S) from its components, the large (60S) and small (40S) subunit. […] Since the 80S is a complex of the 40S and 60S ribosomes, fewer 60S ribosomes are expected to result in increased free 40S subunits. All of these changes are the result of binding NVL2 since they were not present in the NVL2^R403W mutant cells. Taken together, these observations indicate that MM017 inhibits NVL2 leading to reduced 60S ribosome.
We next assessed the impact of disrupting NVL on the distribution of ribosomal species using polysome profiling. Addition of Ph-IAA to induce NVL degradation in NVL^AID/AID cells led to a time-dependent reduction in free 60S and 80S levels (based on absorbance at 260 nm) and a concomitant increase in 40S levels. […] The polysome profiles following NVL disruption in HCT116 cells appear similar to those reported in yeast with RIX7 mutations (37) or in human cells overexpressing catalytic mutants of NVL (38).

[4] = system: MM017-resistant iHCT116 clones; assay: Forward genetics: MM017-resistant iHCT116 clones (NVL mutations); assay type: cell-based, human; conditions: summary statement
[5] = Drug levels in plasma and tumor at end of efficacy study (NSG mice); assay type: in vivo, mouse; conditions: 3 hours after the last treatment dose, 35 mg/kg IP twice a day for 21 days
Procedure: (§1) Having established the kinetics of MM927 mediated NVL inhibition in xenograft tumors, we administered 35 mg/kg MM927 IP twice a day for 21 days to mice harboring tumors derived from either HCT116 NVL wild type or NVL^R403W cells. […] Taken together, we concluded that the potent, and bioavailable analog MM927 reduces tumor growth in mouse xenografts by inhibiting NVL without toxicity.
Pharmacokinetic studies were performed by dosing 6-7 week old CD-1 female mice with analog MM927 formulated as 10% DMSO/10% Kolliphor EL/10% Solutal/70% D5W via the intraperitoneal route. […] The resulting supernatants were evaluated by LC-MS/MS using a Sciex (Framingham, MA) 4500 Triple Quad coupled to a Shimadzu (Columbia, MD) Prominence LC. Briefly, MM927 was detected in multiple reaction monitoring mode (MRM) using the (m+1) transition 488.059/176.1. […] The concentrations of drug in each time-point sample were quantified using Analyst software (Sciex). […] The limit of quantitation (LOQ) was defined as the lowest concentration at which back calculation yielded a concentration within 20% of theoretical and which was above the LOD. Cmax and AUC values were calculated using the noncompartmental analysis tool of Phoenix WinNonLin (Certara/Pharsight, Sunnyvale, CA). […]

[6] = system: HCT116 NVL^R403W tumors; assay: Efficacy study: HCT116 NVL^R403W xenografts; assay type: in vivo, mouse; conditions: 35 mg/kg IP twice a day for 21 days
Procedure: as §1
Efficacy study: Five million parental HCT116 cells or HCT116 NVL^R403W in a volume of 0.1 mL were implanted in the right flank. Tumor volumes were measured every 2 to 4 days with calipers. Volume is calculated as [(L*W^2)*3.14]/6. When volumes reached ˜110 mm^3, treatment was started with 35 mg/kg MM927 or vehicle control (0.2 mL/mouse) twice a day for 21 days. Mice were euthanized at the end of the 21-day treatment period or when any tumor reached 2 cm in its largest diameter, in agreement with the approved animal protocol. At the end of treatment, blood and tumor tissue were collected for pharmacokinetic analysis, measurement of complete blood counts, and blood chemistry measurements as described. Serum alanine transaminase and blood urea nitrogen were analyzed using VITROS MicroSlide technology.

| SMILES | p53 levels in parental HCT116 cells [1] | p53 and p21 abundance in NVL^P307T cells ([1]; NVL^P307T) | enrichment of p53 or p21 KO cells in growth competition [2] | polysome profile, NVL^P307T cells ([3]; NVL^P307T) | polysome profile, parental cells ([3]; parental HCT116) | resistance caused by mutations in NVL2 [4] [fold] | level in plasma and tumor [5] | endpoint tumor burden, NVL^R403W [6] | rate of growth of NVL^R403W tumors [6] |
| --- | --- | --- | --- | --- | --- | --- | --- | --- | --- |
| COCCN1C(=O)c2ccccc2Sc2cc(NC(=O)c3ccoc3)ccc21 [MM017] | upregulates p53 levels; also recorded: increase in p53 at 6 hours post treatment; also recorded: dose-dependent increase in the levels of p53 | no changes in the abundance of either protein | dose-dependent enrichment of either p53 or p21 KO cells | no changes in polysome profiles | time-dependent decrease in the 60S and 80S ribosomal subunits | 30 | – | – | – |
| CC#CCN1C(=O)c2ccc(F)cc2Sc2cc(NC(=O)c3ccc4oc(=O)n(C)c4c3)ccc21 [MM927, N-(10-(But-2-yn-1-yl)-3-fluoro-11-oxo-10,11-dihydrodibenzo[b,f][1,4]thiazepin-7-yl)-3-methyl-2-oxo-2,3-dihydrobenzo[d]oxazole-5-carboxamide] | – | – | – | – | – | – | micromolar levels | no effect | no significant impact |
